# Tested on: fungus tyrosinase
# Assay: in vitro inhibition test of the activity of tyrosinase (dopachrome formation, 475 nm)
# Type: biochemical
# Conditions: inhibitor at 50 molar percent relative to tyrosine; 0.1M phosphate buffer pH 6.5; 25° C.; optical density at 475 nm at plateau
# Description: Certain ones of the benzofuran derivatives have been comparatively studied with respect to hydroquinone, at molar equivalent amounts, in the in vitro inhibition test of the activity of tyrosinase.
# According to this test the amount of dopachrome formed during the course of the reaction chain for the transformation of tyrosine into melanins is followed by visible spectrometry at 475 nm. These reactions are catalyzed, in vitro, by fungus tyrosinase, in the presence of a reducing co-substrate(for example, L-dopa in a small amount) to initiate the hydroxylation reaction of L-tyrosine into L-dopa, which is then catalytically oxidized into dopaquinone, then into dopachrome, produced intermediate before the non-enzymatic oxidation reactions terminating in the formation of melanins.
# The concentration of dopachrome formed during the course of time in the presence and in the absence of the inhibitor is then measured.
# The concentrations of inhibitors are fixed at 50 molar percent relative to the tyrosine concentration in the reaction medium.
# The inhibition effect is expressed by the reduction of the maximum amount of dopachrome formed (optical density value at 475 nm read at the plateau of the curve) relative to the amount obtained in the absence of inhibitor.
# A--0.1M phosphate buffer pH=6.5 (TWEEN 20 at 1%)
# B--L-tyrosine mother solution at 2×10^-3 M in A
# C--L-dopa mother solution at 10^-4 M in A
# D--Fungus tyrosinase mother solution at 2,400 units/ml in A
# E--Inhibitor mother solution at 10^-2 M in A (solutions C and D are prepared the same day).
# Homogenize and equilibrate at 25° C.
# rapidly mix and observe the kinetics by the measurement of the absorbance at 475 nm as a function of time.
row,Compound,% inhibitor (reduction of the maximum amount of dopachrome formed relative to the amount obtained in the absence of inhibitor) [%]
1,Oc1ccc2c(c1)OCC2,66
2,Oc1ccc2ccoc2c1,54
3,"Oc1ccc(O)cc1 [hydroquinone, reference compound]",33
4,Oc1ccc2occc2c1,56

# — patent US5730962A, “Depigmenting cosmetic or dermatologic composition containing a benzofuran derivative and its use in depigmentating skin” (L'Oreal, priority 1991, dated 1998)
